From PubChem BioAssay AID1671224

Molecular target: Tyrosine-protein kinase BTK (Homo sapiens) (UniProt Q06187)
Experiment: BTK kinase inhibition, dose response, biochemical, Z'-LYTE, FRET readout, direct format (AID 1671224)
Conditions: recombinant BTK, Z'-LYTE FRET peptide phosphorylation

Tyrosine-protein kinase BTK (Homo sapiens), sequence (Q06187 whole entry, looked up): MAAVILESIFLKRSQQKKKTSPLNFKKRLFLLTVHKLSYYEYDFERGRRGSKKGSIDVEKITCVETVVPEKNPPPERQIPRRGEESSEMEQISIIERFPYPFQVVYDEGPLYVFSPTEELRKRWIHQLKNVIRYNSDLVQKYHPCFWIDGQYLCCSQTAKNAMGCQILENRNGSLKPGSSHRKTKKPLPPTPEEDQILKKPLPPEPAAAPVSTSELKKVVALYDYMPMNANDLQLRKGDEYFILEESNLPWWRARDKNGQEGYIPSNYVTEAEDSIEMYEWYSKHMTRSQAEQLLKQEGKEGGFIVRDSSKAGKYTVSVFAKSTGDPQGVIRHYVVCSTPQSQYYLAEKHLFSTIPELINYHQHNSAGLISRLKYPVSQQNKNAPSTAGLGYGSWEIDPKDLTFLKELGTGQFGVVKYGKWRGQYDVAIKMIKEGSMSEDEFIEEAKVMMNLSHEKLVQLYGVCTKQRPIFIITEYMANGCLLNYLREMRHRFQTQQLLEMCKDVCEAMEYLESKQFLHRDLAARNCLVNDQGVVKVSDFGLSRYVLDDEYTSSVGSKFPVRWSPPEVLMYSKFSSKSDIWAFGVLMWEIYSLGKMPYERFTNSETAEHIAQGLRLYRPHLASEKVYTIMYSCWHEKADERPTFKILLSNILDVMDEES

IC50: 3.61 µM
Compound: COc1cc2ncnc(Nc3cccc(Cl)c3)c2cc1OC
